Data taken from patent US6417181B1, “Naphthyl-substituted and anilide-substituted sulfonamides” (Bayer Aktiengesellschaft, priority 1998, dated 2002).

Test system: not given
Experiment: not given
Conditions: not given

Row | SMILES | melting point
1 | CC(=O)Nc1ccc(S(=O)(=O)Nc2ccc(NC(=O)C(C)(C)C)cc2)c2ccccc12 | > 240 °C
2 | CNc1ccc(S(=O)(=O)Nc2ccc(NC(=O)C(C)(C)C)cc2)c2ccccc12 | 248 °C (dec.)
3 | CC(C)(C)C(=O)Nc1ccc(NS(=O)(=O)c2ccc(N)c3ccccc23)cc1 | 216 °C

Test system: human cytomegalovirus (HCMV)
Experiment: anti-HCMV screening test: spread of the cytopathogenic effect in HELF cell cultures, 96-well microtitre plates
Type: cell-based
Conditions: Human betaherpesvirus 5; HCMV-infected HELF cells, CPE, Neutral Red staining
Protocol: The anti-HCMV action was determined in a screening test system in 96-well microtitre plates with the aid of human embryonic lung fibroblast (HELF) cell cultures. The effect of the substances on the spread of the cytopathogenic effect was determined in comparison with the reference substance ganciclovir (Cymevene® sodium), a clinically approved anti-HCMV chemotherapeutic.
The substances dissolved (50 mM) in DMSO (dimethyl sulphoxide) are investigated on microtitre plates (96-well) in duplicate determinations (4 substances/plate). Toxic and cytostatic substance effects are additionally detected at the same time. After the appropriate substance dilutions (1:2) on the microtitre plate, a suspension of 50-100 HCMV-infected HELF cells and […] non-infected HELF cells in Eagle's MEM with 10% foetal calf serum is added to each well, and the plates are incubated at 37° C. in a CO2 incubator for several days. After this time, the cell lawn in the sub-stance-free virus controls, starting from 50-100 infectious centres, is completely destroyed by the cytopathogenic effect of the HCMV (100% CPE). After staining with Neutral Red and fixing with formalin/methanol, the plates are assessed with the aid of a projection microscope (plaque-viewer).

Row | SMILES | EC50 [nM]
4 | CN(C)c1cccc2c(S(=O)(=O)Nc3ccc(NC(=O)C(C)(C)CN)cc3)cccc12 [Example 25] | 640
5 | CN(C)c1cccc2c(S(=O)(=O)Nc3ccc(NC(=O)C(C)(C)CCl)cc3)cccc12 [Example 16] | 28
6 | CN(C)c1cccc2c(S(=O)(=O)Nc3ccc(NC(=O)C(C)(CO)CO)cc3)cccc12 [Example 24] | 880
7 | CN(C)c1cccc2c(S(=O)(=O)Nc3ccc(NC(=O)C(C)(C)CF)cc3)cccc12 [Example 13] | 64
